# From PMC6286365 (Scientific Reports, 2018)
# Like-named read-outs stand apart in the source and are kept apart here.
# Tests used:
# nSMase2 [1] = conditions: cited from earlier work
# [2] = cited from earlier work
# [3] = cited from earlier work; remark: listed apart in the source
# nSMase2 [4] = tested on: nSMase2; parameters: method as in PMID 28377412; conditions: co-injection with IL-1β; cited from earlier work
# human nSMase2 = target: T1, human nSMase2 (Homo sapiens, UniProt Q9NY59); assay: biochemical
# T1 sequence (Q9NY59 1-655): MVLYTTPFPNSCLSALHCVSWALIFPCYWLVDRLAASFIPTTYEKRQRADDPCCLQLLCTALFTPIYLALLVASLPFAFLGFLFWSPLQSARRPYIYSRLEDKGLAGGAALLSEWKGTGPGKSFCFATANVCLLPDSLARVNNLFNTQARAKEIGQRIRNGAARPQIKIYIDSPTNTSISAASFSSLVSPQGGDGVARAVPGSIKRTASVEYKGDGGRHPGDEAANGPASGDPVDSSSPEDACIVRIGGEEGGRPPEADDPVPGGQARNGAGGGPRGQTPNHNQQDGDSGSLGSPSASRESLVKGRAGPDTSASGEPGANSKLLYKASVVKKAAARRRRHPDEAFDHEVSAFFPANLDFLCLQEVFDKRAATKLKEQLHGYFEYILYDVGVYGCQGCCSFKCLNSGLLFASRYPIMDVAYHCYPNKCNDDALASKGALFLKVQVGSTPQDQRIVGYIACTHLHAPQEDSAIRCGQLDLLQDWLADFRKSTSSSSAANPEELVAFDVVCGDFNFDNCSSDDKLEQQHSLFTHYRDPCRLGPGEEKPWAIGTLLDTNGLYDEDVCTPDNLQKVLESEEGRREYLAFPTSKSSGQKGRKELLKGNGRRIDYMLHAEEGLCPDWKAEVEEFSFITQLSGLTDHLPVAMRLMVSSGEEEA
# primary astrocytes = assay: Inhibition of EV release from primary astrocytes (FBS withdrawal, nanoparticle tracking); format: cell-based, rat; conditions: 2 h treatment, dose range of concentrations
# Procedure: (§1) Independent laboratories have shown that pharmacological and genetic inhibition of nSMase2 blocks EV secretion from glial cells. […] Two hours after treatment, EVs were isolated from the media and quantified by nanoparticle tracking analysis. […] Cells were fixed and immunofluorescence labeling for GFAP was performed.
# (§2) Media was collected after 2 h incubation and centrifuged at 2700 × g for 15 min at 4 °C. Supernatant was collected and the number of extracellular vesicles (EVs) was quantified using ZetaView Nanoparticle Tracker. The mean concentration of EVs/mL (±SEM) was calculated from 4 replicate experiments. […] Astrocytes grown in complete medium were used as no treatment control. Cells were fixed and stained with anti-GFAP antibody (1:500, Sigma). Fluorescence intensity was measured using Image J. (C) Quantitation of fluorescence in (B). Bar graph represents background corrected mean fluorescence intensity measured from 100 astrocytes per condition. Error bars represent standard error of mean. One-way ANOVA followed by Tukey’s posthoc test was performed.
# Potential inhibition of test compounds on EV release from primary astrocytes was carried out as previously described (Dickens et al., 2017). Briefly, rat primary astrocytes were seeded onto 6-well plates at a density of 20,000 cells/well. Twenty-four hours after seeding, astrocytes were washed with PBS and the medium changed to media without FBS. Absence of FBS mimics a trophic factor withdrawal stimulus causing EVs to be released from astrocytes via an nSMase2-dependent pathway. […] The supernatant was collected and the number of EVs quantified using ZetaView Nanoparticle Tracker (Particle Metrix GmBH, Meerbusch, Germany) and the corresponding ZetaVeiw software (8.03.04.01). Nanosphere size standard 100 nm (Thermo Scientific) was used to calibrate the instrument prior to sample readings. […] For each sample 1 mL of the supernatant was injected into the sample-carrier cell and the particle count measured at 5 positions, with 2 cycles of reading per position. […] Mean concentration of EVs/mL (±SEM) was calculated from 4 replicates.
# Rat primary astrocytes = assay: Astrocyte activation, GFAP immunofluorescence (+/-) serum deprivation; format: cell-based; conditions: 10 μM, 2 h
# Procedure: as §1, §2
# GFAP-GFP mice = assay: Striatal IL-1β brain inflammation model: GFP-labeled astrocyte-derived EVs in plasma; format: in vivo, mouse; conditions: 10 mg/kg IP 0.5 h before IL-1β, 2 h post IL-1β
# Procedure: As we have previously shown[11],[18], striatal injection of IL-1β in mice expressing GFP-GFAP in astroglia triggers a release of GFP-labelled EVs that rapidly enter into plasma, resulting in cytokine upregulation in liver and peripheral immune cell migration into brain[11]. […] There were two groups of mice: the first group was sacrificed 2 h after IL-1β administration by heart puncture, and GFP-labeled circulating EVs were measured with liver cytokines. […] Counting of astrocyte-released EV (GFP+) from blood and liver cytokine analysis was conducted by single injection of DPTIP. Although release of EVs from astrocytes can be initiated immediately after intracranial injection of IL-1β, infiltration of neutrophils in brain parenchyma occurred 12h-24h after the IL-1β injection. […] Western analysis using the isolated exosomal fraction confirmed the presence of CD63 (transmembrane protein), TSG101 (cytosolic protein) and Flotilin-1 (lipid raft associated protein), commonly used EV markers[19],[20]. The GFP signal was an indication that these EVs originated in brain[11] while lack of mitofilin and α-actinin signals indicated the vesicles were not of mitochondrial[21] or cytoskeletal[22] origin respectively (Fig. 6B).
# Compounds were given 0.5 h before IL-1β dosing. One group of mice was sacrificed 2 h after IL-1β administration to determine effects of the various treatments on extracellular vesicles (EVs) releases from brain and liver cytokine analysis. […] (C) Liver cytokine levels under different treatments as measured by qRT-PCR of RNA isolated from fresh frozen liver tissue. Samples were analyzed in triplicate. **p < 0.01 and *p < 0.05 compared to saline control; ^##p < 0.01 and ^#p < 0.05 compared to IL1-β group. (D) Neutrophil levels in brain as measured by immunohistochemistry using coronal brain sections and Ly6b antibody. (E) Quantitation of (D); **p < 0.01 compared to saline control; ^##p < 0.01 compared to IL1-β group. […]
smiles,measurement,setting,value
O=c1[nH]c(=S)[nH]c(-c2ccccc2)c1Cc1c(O)ccc2ccccc12 [Cambinol],IC50,nSMase2 [1],[…]
same,metabolic stability,[2],metabolically unstable
same,in vivo pharmacokinetic profile,[3],poor in vivo pharmacokinetic profile
COc1ccc(S(=O)(=O)N(C(=O)C(C)C)c2ccc3oc(=O)sc3c2)cc1 [MLS000521532],IC50,human nSMase2,10 µM
COc1cc(OC)cc(-c2nc(-c3cccs3)c(-c3ccccc3)[nH]2)c1 [des-hydroxyl analog],effect on EV release from primary astrocytes,primary astrocytes; listed as des hydroxyl inactive analog of DPTIP,did not inhibit EV release
same,effect on EV release from primary astrocytes,primary astrocytes; listed as inactive analog,no effect on EV release
same,effect on GFAP levels without serum starvation,Rat primary astrocytes; no serum starvation,did not change GFAP levels
same,effect on astrocyte activation (GFAP) in response to serum starvation,Rat primary astrocytes; with serum deprivation,failed to prevent astrocyte activation
same,effect on IL-1β-induced EV release,GFAP-GFP mice,no difference
same,effect on IL-1β-induced EV release,GFAP-GFP mice; listed as inactive analog,no statistically significant effect
COc1cc(O)c(C(=O)O)c(-c2cc(O)c(O)cc2C)c1 [altenusin],effect on neutrophil infiltration into brain parenchyma,nSMase2 [4],suppress neutrophil infiltration
COc1ccc(NC2CCCN(C(=O)CCc3ccccc3F)C2)cc1 (centres unmarked) [MLS001002546],IC50,human nSMase2,10 µM
